Measurements published in US20230285570A1, “THERAPEUTICALLY USEFUL CURE-PRO MOLECULES FOR E3 LIGASE MEDIATED DEGRADATION OF PROTEINS, AND METHODS OF MAKING AND USING THEM” (CORNELL UNIVERSITY, priority 2020, published 2023).
Entries after “also recorded” stand apart in the source; their conditions may differ.

How the values were obtained:
Aiolos and Ikaros [1] = assay: Aiolos and Ikaros expression in Namalwa cells, Western blot; format: cell-based; conditions: monomer alone, 100 nM-10 μM, 24 h
Method: (§1) Namalwa, Ramosm HeLa, MCF7, or HT29 HCT116 cells (2.5-3×10^6) were treated for 24 hours with the indicated compounds solubilized in DMSO. The cells were washed in ice-cold PBS and were then lysed in RIPA lysis buffer (150 mM NaCl, 5 mM EDTA, 1% NP-40, 0.5% sodium deoxycholate, 0.1% SDS, 50 mM Tris, pH 8.0.) with Roche protease inhibitor complete cocktail and phosphatase inhibitors (10 mM sodium fluoride, 10 mM sodium pyrophosphate, 1 mM sodium orthovanadate and 20 mM β-glycerophosphate). The total protein concentrations were determined by Bradford Protein Assay (Pierce) and 10-20 μg of protein was loaded onto 4-15% Tris-Glycine gradient gels (Biorad). After standard gel electrophoresis, the separated proteins were transferred to PVDF membrane by wet transfer. The immunoblots were then blocked for 1 hour in 5% skim milk in TBST or 5% BSA in TBST, according to manufacturer's instructions, before an overnight incubation at 4° C. with indicated antibodies and membranes. Membranes were then incubated with the appropriate horseradish peroxidase-conjugated secondary antibodies (1:5,000 dilution) for 1 h at room temperature and the bands were visualized using the Clarity Max Western ECL Substrate (Biorad) and the ChemiDoc Imaging System (Biorad). Signal was detected with ECL Western Blotting Substrate (Pierce) and X-ray film processed with a Konica SRX-101 X-ray film processor or captured by Bio-Rad's Chemidoc Imaging system.
(§2) Namalwa (FIG. 78) or Ramos (FIG. 79) cells (5×10^6) were treated for 24 h with the compounds solubilized in DMSO. Compounds were added at 100 nM-10 μM each. Standardized protein samples were electrophoresed and imaged as described in the immunoblotting section above. FIGS. 78 and 79 depict the effects of the E3 ubiquitin ligase CURE-PRO monomer ligands (100 nM-10 μM, 24 h) targeting Cereblon on the expression of Aiolos and Ikaros, two downstream proteins that are known to be ubiquitinated and degraded after IMiDs bind to CRBN.

Aiolos and Ikaros [2] = assay: Aiolos and Ikaros expression in Ramos cells, Western blot; format: cell-based; conditions: monomer alone, 100 nM-10 μM, 24 h
Method: as §1, §2

SLC19A1 = assay: RT-PCR of c-MYC downstream target gene SLC19A1 in HeLa cells; format: cell-based, Human; conditions: single compound, HeLa, 10 μM, 24 h
Method: The suppression of the expression of the downstream c-MYC target, SLC19A1, was measured by RT-PCR using Power SYBR® Green Cells-to-Ct™ Kit (Life Technologies). Adherent cells were plated on 96 well plates at 5,000 cells per well were treated for 24 h with monomer compounds and compounds capable of reversible interactions (1 nM-100 μM). Cells were subsequently washed in ice-cold PBS processed according to the manufacturer's instructions. Quantitative real-time PCR was performed using a ViiA™ 7 Real-time PCR System (Applied Biosystems, Foster City, Calif., USA). GAPDH and ACTB served as internal controls.
HeLa cells (1×10^4) were treated for 24 hours in 96 well plates with the compounds solubilized in DMSO. Compounds were added at 10 μM each and RNA expression measured by the Cells-to Ct method described above (Thermofisher).

c-MYC [3] = molecular target: T1, c-MYC (Homo sapiens, UniProt P01106); assay: CURE-PRO-mediated c-MYC degradation in HCT1116 cells, Western blot or WES; format: cell-based; set-up: endogenous in cells; host or cells: HT29
Method: as §1
WES Simple analysis was performed on WES system (ProteinSimple-Biotechne) according to the manufacturer's instructions. Total protein concentrations of cell lysates were determined by the Pierce BCA kit (Thermo Fisher). 3 μL of 0.3 μg/μL of the protein lysate was loaded onto a 12- to 230-kDa WES assay plate (ProteinSimple) where 300 nL sample was withdrawn through a capillary, subjected to electrophoretic separation of proteins by size, and followed by the simultaneous, HRP-based detection of proteins using the Anti-Rabbit Detection Module (Proteinsimple: #DM-001). The electropherograms were checked then the automatic peak detection was manually corrected if it was required.
HCT1116 cells (2.5×10^6) were treated for 24 h with the compounds solubilized in DMSO. Compounds were added at 10 nM-10 μM each. Standardized protein samples were electrophoresed and imaged as described in the immunoblotting or WES (Proteinsimple) sections above. c-MYC monomers, MYC-N20 (FIG. 100, a 10074-G5 derivative comprising diol linkers), and MYC-N10 (FIG. 101), MYC-N6 (FIG. 102), and MYC-N9 (FIG. 103) (10058-F4 derivatives comprising diol linkers), and MDM2 ligands, 8310 and 8312 (Nutlin 3a derivatives comprising boronic acid linkers) were combined in a 1:1 ratio.
HCT1116 cells (2.5×10^6) were treated for 24 h with the compounds solubilized in DMSO. Compounds were added at 1 μM-10 μM each.

c-MYC [4] = molecular target: T1, c-MYC; assay: Summary of C-MYC degradation by CURE-PRO pairs, estimated from Western Blot or WES; format: cell-based; set-up: endogenous in cells; host or cells: HT29
Summary of the method: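 Namalwa, Ramos, HeLa, MCF7, HT29 or HCT116 cells treated 24 h with compounds in DMSO; RIPA lysates analysed by Western blot (ECL) or capillary WES immunodetection. Check mark denotes 30% to 70% or higher protein degradation.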

MV-4-11 cells = assay: CellTiter-Glo cell viability, MV-4-11 cells; format: cell-based; conditions: monomer alone, MV-4-11, 24 h, 1 nM-100 μM
Summary of the method: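 Viability by CellTiter-Glo luminescence. One protocol: 5×10^4 MV-4-11 cells, 24 h, compounds at 1 nM-100 μM each; other: 1×10^4 cells, 72 h, 10 nM-100 μM each. BRD ligands combined 1:1 with CRBN ligands; dose-response curves fitted.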

T1 sequence (P01106 whole entry): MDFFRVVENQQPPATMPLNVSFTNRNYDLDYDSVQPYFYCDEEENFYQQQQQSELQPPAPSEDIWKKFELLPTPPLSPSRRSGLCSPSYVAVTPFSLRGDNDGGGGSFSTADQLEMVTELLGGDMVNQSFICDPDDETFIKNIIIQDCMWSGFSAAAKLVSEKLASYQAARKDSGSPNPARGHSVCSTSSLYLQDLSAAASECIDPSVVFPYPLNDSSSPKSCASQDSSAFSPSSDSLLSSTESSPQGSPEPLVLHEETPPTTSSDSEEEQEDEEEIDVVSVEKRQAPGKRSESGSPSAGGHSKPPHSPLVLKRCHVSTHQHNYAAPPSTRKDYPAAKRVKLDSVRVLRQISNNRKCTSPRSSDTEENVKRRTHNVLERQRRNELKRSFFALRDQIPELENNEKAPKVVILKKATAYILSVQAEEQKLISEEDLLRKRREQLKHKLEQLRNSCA

| SMILES | expression of Aiolos and Ikaros (Aiolos and Ikaros [1]) | expression of Aiolos and Ikaros (Aiolos and Ikaros [2]) | other results |
| --- | --- | --- | --- |
| O=C1CCC(N2C(=O)c3cccc(CNC(=O)C4C[C@H]5C[C@@H]4[C@H](O)[C@@H]5O)c3C2=O)C(=O)N1 (stereo in doubt) [compound 8066, (1S,4R,5R,6S)—N-((2-(2,6-dioxopiperidin-3-yl)-1,3-dioxoisoindolin-4-yl)methyl)-5,6-dihydroxybicyclo[2.2.1]heptane-2-carboxamide] | largely maintain Aiolos and Ikaros expression levels | largely maintain Aiolos and Ikaros expression levels | – |
| Cc1sc2c(c1C)C(c1ccc(Cl)cc1)=N[C@@H](CC(=O)Nc1ccc(OCCOCCOCCOCCNc3cccc4c3C(=O)N(C3CCC(=O)NC3=O)C4=O)cc1)c1nnc(C)n1-2 (some centres unmarked) [ARV-825, reference compound] | – | – | suppression of SLC19A1 expression (SLC19A1): Complete suppression; also recorded: completely suppressed |
| CCc1ccc(/C=C2\SC(=O)N(CCOCCNC(=O)c3cccc(B(O)O)c3)C2=O)cc1 [MYC-E4] | – | – | c-MYC degradation (c-MYC [3]; 1:1 with MDM2 ligand 8313, HCT1116, 24 h, 1 μM-10 μM each): had no effect; c-MYC degradation (c-MYC [3]; 1:1 with MDM2 ligand 8314, HCT1116, 24 h, 1 μM-10 μM each): caused degradation of c-MYC protein at 10 μM; also recorded: Degradation was noted; c-MYC degradation (c-MYC [3]; monomer dosed alone, HCT1116, 24 h): No loss of c-MYC protein was noted; Degradation of C-MYC, combination with CRBN ligand 8047 (c-MYC [4]; Table 7, aryl-boronic acid MYC ligand + 8047): √ (A black check mark indicates efficacy of 30% to 70% or higher protein degradation); Degradation of C-MYC, combination with MDM2 ligand 8314 (c-MYC [4]; Table 8, aryl-boronic acid MYC ligand + 8314): √ (A black check mark indicates efficacy of 30% to 70% or higher protein degradation) |
| Nc1cccc2c1C(=O)N(C1CCC(=O)NC1=O)C2=O (centres unmarked) [Pomalidomide, pomalidomide, reference compound] | caused greater loss of Aiolos and Ikaros protein than the CURE-PRO derivatives at equimolar concentrations | caused greater loss of Aiolos and Ikaros protein than the CURE-PRO derivatives at equimolar concentrations | suppression of SLC19A1 expression (SLC19A1): no suppression |
| O=C1CCC(N2C(=O)c3cccc(CNC(=O)c4ccc(O)c(O)c4)c3C2=O)C(=O)N1 (centres unmarked) [compound 8046, N-((2-(2,6-dioxopiperidin-3-yl)-1,3-dioxoisoindolin-4-yl)methyl)-3,4-dihydroxybenzamide] | largely maintain Aiolos and Ikaros expression levels | largely maintain Aiolos and Ikaros expression levels | – |
| O=C1CCC(N2C(=O)c3cccc(CNC(=O)c4cccc(O)c4O)c3C2=O)C(=O)N1 (centres unmarked) [compound 8047, N-((2-(2,6-dioxopiperidin-3-yl)-1,3-dioxoisoindolin-4-yl)methyl)-2,3-dihydroxybenzamide] | largely maintain Aiolos and Ikaros expression levels | largely maintain Aiolos and Ikaros expression levels | – |
| O=C1CCC(N2C(=O)c3cccc(CNC(=O)c4ccc(B(O)O)cc4)c3C2=O)C(=O)N1 (centres unmarked) [compound 8048] | largely maintain Aiolos and Ikaros expression levels | largely maintain Aiolos and Ikaros expression levels | – |
| O=C1CCC(N2C(=O)c3cccc(CNC(=O)c4cccc(B(O)O)c4)c3C2=O)C(=O)N1 (centres unmarked) [compound 8049] | largely maintain Aiolos and Ikaros expression levels | largely maintain Aiolos and Ikaros expression levels | loss of cellular viability (MV-4-11 cells): little loss of viability was observed |
